Source: PubChem BioAssay AID1963844 (Molecular Pharmacology Branch, DTP, NCI, 2024)

Tested on: 422866-222-R5-J1-PDC complex spheroid viability
Test: Anticancer human tumor 422866-222-R5-J1-PDC patient-derived pancreatic adenocarcinoma cell line growth inhibition [POLQ]
Settings: for IC50: curve of first compound; for viability, T/C: stronger effect = lower value
Method: Multicellular complex tumor spheroid response to Polymerase (POL) inhibitors (novobiocin, ART-558, RP6685) in combination with a variety of drugs and investigational agents in selected tumor cell lines
The POL inhibitors (novobiocin, ART-558, and RP6685) were evaluated both individually and in combination with standard of care and investigational anticancer small molecules within a complex spheroid model of solid tumors. . Complex spheroids include a stromal component modeled by human endothelial cells (HUVEC) and fibroblasts modeled by human mesenchymal stem cells (MSCs). The concentration ranges selected for each drug and investigational agent were based upon clinically achievable concentrations if the clinical Cmax of the agent was known.
Compounds. The drugs and investigational agents: novobiocin (NSC847541), ART-558 (NSC835418), RP-6685 (NSC848927), peposertib (NSC802822), ceralasertib (NSC780249), elimusertib (NSC800525), camonsertib (NSC841442), AZD-1390 (NSC803789), olaparib (NSC753686), talazoparib (NSC767125), rucaparib (NSC756644), sotorasib (NSC818433), MRTX-1133 (NSC836407), SN-38 (NSC673596), topotecan (NSC609699), epotoside (NSC141540), doxorubicin (NSC123127), gemcitabine (NSC613327), 5-fluorouracil (NSC19893), paclitaxel (NSC125973), vemurafenib (NSC761431), MSA-2 (NSC828583), SN-011 (NSC837082), adavosertib (NSC754352), prexasertib (NSC758257), carboplatin (NSC241240) and oxaliplatin (NSC266046), were obtained from the National Cancer Institute (NCI) Developmental Therapeutics Program Chemical Repository (21). The FDA-approved anticancer drug set is available from the Developmental Therapeutics Program at https://dtp.cancer.gov/organization/dscb/obtaining/. […] The stock solutions were prepared in dimethyl sulfoxide (DMSO, Sigma-Aldrich, St. Louis, MO, cat. D2650), except for the platinum compounds which were prepared in saline (Quality Biological, Gaithersburg, MD, cat. 114-055-101), at 800-fold the tested concentration and stored at -70 degrees C prior to their use. All drugs and investigational agents were tested over a range starting from a high concentration at or near the clinical Cmax and decreasing in half-log increments. If the clinical Cmax for an agent had not been determined, the highest concentration tested was 10 microM, except for SN-38, which was tested at a high concentration of 1 microM.
Cell Culture. All cells were maintained in an incubator at 37 degrees C and 5% CO2 with 95% humidity. The PDC lines were cultured according to standard operating procedures established by the NCI PDMR (https://pdmr.cancer.gov). Table 3 of the manuscript, lists the cell lines along with the number of the three cell types plated to form the mct-spheroids and media for tumor cell growth. After thawing, all PDC lines, except 997537-175-T-J1-PDC and 415267-285-R-J2-PDC, were cultured in Matrigel-coated flasks prepared with a working solution of 1X Ham's F-12 nutrient mix, without supplementation (Thermo Fisher Scientific, cat. 11765054), 100 U/mL penicillin-streptomycin (Thermo Fisher Scientific, cat. 15140122), and 2.5% Matrigel (Corning Inc., Corning, NY, cat. 354248) for the first three passages. The two PDC lines 997537-175-T-J1-PDC and 415267-285-R-J2-PDC were cultured on uncoated flasks. The 857933-349-R-J2-PDC line was cultured in 6C/Colon 1B media containing advanced DMEM/F-12 (Thermo Fisher Scientific, cat. 12634028), 10 mM HEPES (Thermo Fisher Scientific, cat. 15630080), 1X GlutaMAX supplement (Thermo Fisher Scientific, cat. 35050061), 0.1 mg/mL primocin (InvivoGen, San Diego, CA, cat. ant-pm-2), 10% defined fetal bovine serum, heat inactivated (HyClone Laboratories Inc., Logan, UT, cat. SH30070.03HI), 50% L-WRN conditioned media (ATCC, cat. CRL-3276), 1.25 mM N-Acetyl-L-cysteine (Sigma-Aldrich, cat. A9165), 10 mM nicotinamide (Sigma-Aldrich, cat. N0636), 1X B-27 supplement (Thermo Fisher Scientific, cat. 17504044), 1X N-2 supplement (Thermo Fisher Scientific, cat. […]
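Further: spheroids exposed to compounds for one week before readout.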
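Wherever viability, T/C is given: percent of DMSO vehicle wells luminescence so 100% = untreated viability.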

CC(=O)O[C@H]1C(=O)[C@@]2(C)[C@H]([C@H](OC(=O)c3ccccc3)[C@]3(O)C[C@H](OC(=O)[C@H](O)[C@@H](NC(=O)c4ccccc4)c4ccccc4)C(C)=C1C3(C)C)[C@]1(OC(C)=O)CO[C@@H]1C[C@@H]2O + Cc1cccc(N(C)C(=O)C2C(O)CCN2c2nc(C)cc(C(F)(F)F)c2C#N)c1
IC50 (second compound 0.0316 µM): < 9.49 nM | IC50 (second compound 0.1 µM): > 3000 nM | IC50 (second compound 0.316 µM): > 3000 nM | IC50 (second compound 1 µM): < 9.49 nM | IC50 (second compound 3.16 µM): > 3000 nM | IC50 (second compound 10 µM): < 9.49 nM | viability, T/C (second compound 0.0316 µM, first compound 0.00949 µM): 48.8% | viability, T/C (second compound 0.0316 µM, first compound 0.03 µM): 47.8% | viability, T/C (second compound 0.0316 µM, first compound 0.0949 µM): 44.6% | viability, T/C (second compound 0.0316 µM, first compound 0.3 µM): 53% | viability, T/C (second compound 0.0316 µM, first compound 0.949 µM): 52.6% | viability, T/C (second compound 0.0316 µM, first compound 3 µM): 56% | viability, T/C (second compound 0.1 µM, first compound 0.00949 µM): 54% | viability, T/C (second compound 0.1 µM, first compound 0.03 µM): 47.9% | viability, T/C (second compound 0.1 µM, first compound 0.0949 µM): 58.1% | viability, T/C (second compound 0.1 µM, first compound 0.3 µM): 50.2% | viability, T/C (second compound 0.1 µM, first compound 0.949 µM): 49.4% | viability, T/C (second compound 0.1 µM, first compound 3 µM): 52.6% | viability, T/C (second compound 0.316 µM, first compound 0.00949 µM): 54% | viability, T/C (second compound 0.316 µM, first compound 0.03 µM): 51.9% | viability, T/C (second compound 0.316 µM, first compound 0.0949 µM): 55.2% | viability, T/C (second compound 0.316 µM, first compound 0.3 µM): 46.3% | viability, T/C (second compound 0.316 µM, first compound 0.949 µM): 52.3% | viability, T/C (second compound 0.316 µM, first compound 3 µM): 56.6% | viability, T/C (second compound 1 µM, first compound 0.00949 µM): 49.8% | viability, T/C (second compound 1 µM, first compound 0.03 µM): 41.3% | viability, T/C (second compound 1 µM, first compound 0.0949 µM): 51.9% | viability, T/C (second compound 1 µM, first compound 0.3 µM): 55.6% | viability, T/C (second compound 1 µM, first compound 0.949 µM): 50.9% | viability, T/C (second compound 1 µM, first compound 3 µM): 59.8% | viability, T/C (second compound 3.16 µM, first compound 0.00949 µM): 57.5% | viability, T/C (second compound 3.16 µM, first compound 0.03 µM): 46.9% | viability, T/C (second compound 3.16 µM, first compound 0.0949 µM): 59.7% | viability, T/C (second compound 3.16 µM, first compound 0.3 µM): 49.8% | viability, T/C (second compound 3.16 µM, first compound 0.949 µM): 57.8% | viability, T/C (second compound 3.16 µM, first compound 3 µM): 67.8% | viability, T/C (second compound 10 µM, first compound 0.00949 µM): 47.7% | viability, T/C (second compound 10 µM, first compound 0.03 µM): 48% | viability, T/C (second compound 10 µM, first compound 0.0949 µM): 42.9% | viability, T/C (second compound 10 µM, first compound 0.3 µM): 51.6% | viability, T/C (second compound 10 µM, first compound 0.949 µM): 64.9% | viability, T/C (second compound 10 µM, first compound 3 µM): 68.3%
